Experiments:
MF-Luc cells = experiment: Lumicycle recording of circadian period in MF-Luc cells (PER2 promoter luciferase reporter); format: cell-based, mouse; details: compound 173 treatment, 5 mM (so in the source), recorded 7 days, FIG. 4 and FIG. 5 panels C & F
Protocol: (§1) Cell Culture. Primary human pulmonary artery endothelial cells (HPAECs) or mouse fibroblasts harboring a luciferase reporter under the control of a Period 2 (PER2) promoter (MF-Luc) were seeded into tissue culture dishes (Perkin Elmer) in a humidified incubator at 37 °C and 5% CO2. For knockdown experiments, cells were pre-treated with 20 nM “Silencer Select” scrambled silencing RNA (siNC) or with antisense targeting of Np/(siNPL) for 48 hours (ThermoFisher). For chemical treatments, cells were treated with vehicle (DMSO) or 5 mM 173.
Lumicycle Recording. Prior to circadian measurement, cells were synchronized with […] forskolin (Sigma) in Dulbecco's Modified Eagle Medium (DMEM) supplemented with 0.1% fetal bovine serum, and 100 mM Beetle luciferin (Promega) luciferase substrate was added for bioluminescent recording. Culture dishes were then sealed with sterile vacuum grease and placed in the Lumicycle 96 (Actimetrics) in a dehumidified incubator at 37 °C. Luminescence was recorded continuously for 7 days, and the initial 12 hours of data was omitted from the analysis to allow time for cell synchronization. […] Period was calculated as 2p/w. Period was analyzed if the R^2 was greater than 0.8.

[1] = system: human pulmonary artery endothelial cells (PAECs); experiment: Caspase-Glo 3/7 apoptosis assay in human pulmonary artery endothelial cells; format: cell-based; details: compound 173 treatment, 5 mM (so in the source), FIG. 5 panels A & D
Protocol: as §1
Apoptosis. Apoptosis was measured using the Caspase-Glo 3/7 Assay System (Promega) according to the manufacturer's instructions.

[2] = system: human pulmonary artery endothelial cells (PAECs); experiment: BrdU cell proliferation assay in human pulmonary artery endothelial cells; format: cell-based; details: compound 173 treatment, 5 mM (so in the source), FIG. 5 panels B & E
Protocol: as §1
Cell Proliferation. Cell proliferation was measured using the BrdU Cell Proliferation Assay Kit (Cell Signaling Technologies) according to the manufacturer's instructions.

Cc1ccc(-c2n[nH]c3c2C2(C(=O)N(C)c4ccccc42)N(C)C3=O)c(O)c1 (stereo not shown) [Compound 173] was tested, and the Circadian period length (MF-Luc cells) was “decreased”, the Circadian period length (MF-Luc cells; listed as compound 173) was “significantly decreased” and the Apoptosis [1] was “increased”. The Proliferation [2] was “decreased”.

— US20260335288A1, “Pharmacologic Targeting of Genetic Factors That Control Jet Lag” (University of Pittsburgh-Of the Commonwealth System of …, priority 2022, published 2026)
